Data: patent US20260327195A1, “2-STYRYLBENZOTHIAZOLE DERIVATIVES AS ALPHA-SYNUCLEIN BINDING COMPOUNDS” (Eberhard Karls Universität Tübingen Medizinische Fakultät, priority 2023, published 2026)

What was measured:
[1] = target: αSYN pathology in MSA human brain slices (Homo sapiens, UniProt P37840); assay: In vitro autoradiography on MSA human brain slices (cerebellum); assay type: binding
Description: (§1) Post-mortem human brain slices (10 μm thickness) were obtained from and the subject cases were analyzed by the Neurobiobank München (NBM, Munich, Germany), where tissues were collected on the basis of written informed consent according to the guidelines of the ethics committee of the Ludwig-Maximilians-University Munich, Germany (#345-13). The use of brain tissue samples in this study was approved by the ethics committee of the Faculty of Medicine at the University of Tuebingen (Ethics approval number: 813/2018BO2). Table 1 summarizes the information of the subjects from which samples were obtained and used in the experiment.
(§2) For autoradiography, brain slices were thawed for one hour before pre-incubation in BSA buffer for 25 minutes at room temperature. To determine total binding (TB), brain slices were incubated with the tracer (10 nM [^18F]PFSB, 10 nM [^18F]MFSB). Incubation of consecutive slices with the correspondent non-radioactive compounds (10 μM PFSB, […]) was performed to determine non-specific binding (NSB). The non-radioactive compounds were prepared by dissolving in DMSO to 10 mM, which yielded DMSO concentration of ≤0.1% in the final solution. Incubation was carried out for one hour at room temperature with subsequent washing in cold BSA buffer (three times for ten minutes) followed by three dipping in cold deionized water. After drying under UV lamps, brain slices were exposed to a storage phosphor screen (Molecular Dynamics, Caesarea, Israel) for 18 hours, which was then scanned in a phosphor imager (STORM 840, Molecular dynamics, Sunnyvale, CA, USA).
(§3) Quantitative data analysis was performed by drawing four regions of interest (ROIs) in relevant areas of the slice and one ROI next to it for background subtraction (ImageJ 1.8.0_172, National Institute of Health, Bethesda, Maryland, USA) (Schneider, C. A. et al., NIH Image to ImageJ: 25 years of image analysis; Nat Methods 2012, 9 (7), 671-5). Specific binding (SB) is obtained by subtracting NSB from TB. The SB disease/SB control ratio was calculated by dividing by the SB in diseased tissues with the respective SB in control tissues.

[2] = target: αSYN pathology in PD human brain slices (Homo sapiens, UniProt P37840); assay: In vitro autoradiography on PD human brain slices (frontal cortex); assay type: binding; conditions: 10 nM tracer; NSB with 10 μM non-radioactive compound
Description: as §1
For autoradiography, brain slices were thawed for one hour before pre-incubation in BSA buffer for 25 minutes at room temperature. To determine total binding (TB), brain slices were incubated with the tracer (10 nM [^18F]PFSB, 10 nM [^18F]MFSB). […]
as §3, with “Specific binding (SB) is obtained by subtracting NSB from TB.” left out

[3] = target: T1, Aβ plaques in AD human brain slices (Homo sapiens, UniProt P05067); assay: In vitro autoradiography on AD human brain slices (frontal cortex); assay type: binding
T1 construct: mainly Abeta40/42 cut from APP) in post-mortem AD frontal cortex slices
Description: as §1, §2, §3

[4] = In vivo dynamic PET/MR imaging, pharmacokinetic profile; parameters: species or system mouse (wild-type female C57BL/6J); conditions: i.v.
Description: The animal experiments were performed in compliance to the European directives on the protection and use of laboratory animals (Council Directive 2010/63/UE) and the German animal welfare act with approval from the local authorities (Regierungspräsidium Tuebingen, R3/19G). Three healthy wild-type female C57BL/6J mice (20.3±0.9 g; 9 weeks old) purchased from Charles River Laboratories (Sulzbach, Germany) were maintained in a vivarium on a 12:12 hour light dark cycle and were kept at a temperature of 22° C. with 40-60% humidity and free access to a standard diet and tap water.
The mice (n=3) were anaesthetized with 1.5% isoflurane evaporated in 100% oxygen at a flow rate of 0.8 L/min. Body temperature of 37° C. was maintained using a feedback temperature control unit. PET imaging studies were performed on Inveon dedicated microPET system (Inveon D-PET, Siemens, Knoxville, TN, USA). Five seconds after the start of PET acquisition, mice were injected intravenously with 9.9±0.6 MBq of [^18F]MFSB (Am=46.2±2.5 GBq/μmol at time of injection). The one-hour dynamic acquisitions were divided into 39 time frames (12×5 s, 6×10 s, 6×30 s, 5×60 s and 10×300 s). A 13-minute transmission measurement with a cobalt-57 point source was performed for attenuation correction. Subsequently, an anatomical magnetic resonance (MR) scan with a 7 Tesla MR scanner (ClinScan, Bruker BioSpin MRI GmbH, Ettlingen, Germany) using a rat whole-body volume coil and the Paravision software (v6.0.1, Bruker, Ettlingen, Germany) using a T2-weighted Turbo-RARE MRI sequence.
The PET image was reconstructed via the OSEM3D/SP-MAP reconstruction algorithm and coregistered to the whole-body MRI scan. Volumes of interest (VOIs) were hand-drawn for the relevant organs based on the MR anatomy in PMOD (PMOD Technologies, Faellanden, Switzerland, Version 4.2) and VOIs at different regions in the mouse brain were extracted using the atlas provided by PMOD to calculate the respective time-activity curves (TACs). Standardized uptake values (SUVs) were calculated as a ratio of the detected activity with injected activity and weight (SUV=(TAC (kBq/cc)/inj. activity (kBq))*weight (g)).

αSYN = conditions: result in words; cited from earlier work
Aβ fibrils = conditions: result in words; cited from earlier work
[5] = 10 nM tracer, NSB with 10 μM non-radioactive compound

T1 sequence (P05067 672-713 limits assumed): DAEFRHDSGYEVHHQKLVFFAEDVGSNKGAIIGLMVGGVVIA

SMILES | SB disease/SB control, MSA2/cerebellum ctrl [1, 5] | selectivity towards αSYN over Aβ ([1]; autoradiography, result in words, FIG. 12) | non-specific binding on MSA sections ([1]; result in words, hampered quantification of the disease/control SB ratio) | SB disease/SB control, PD/frontal cortex ctrl [2] | SB disease/SB control, AD/frontal cortex ctrl [3, 5] | binding in AD brain regions with Aβ plaques / AD/frontal cortex SB ratio in words ([3]; result in words, FIG. 12) | crossing of the BBB ([4]; 9.9±0.6 MBq, 60 min dynamic PET/MR) | clearance from lungs and liver ([4]; after first 2 min, result in words) | uptake in liver (SUV) ([4]; first 2 min) | uptake in lungs (SUV) ([4]; first 2 min) | clearance (brain), over 60 min ([4]; result in words) | kidney uptake ([4]; result in words) | renal excretion, start ([4]; result in words) | binding to αSYN (αSYN) | binding to Aβ fibrils (Aβ fibrils)
[18F]c1ccc2nc(/C=C/c3ccc(N4CCOCC4)cc3)sc2c1 [[^18F]MFSB] | 1.27 | validated the selective binding to αSYN | with [^18F]MFSB was hampered by high NSB. | 1.18 | 1.03 | remained favorable | crossing of the BBB was successful | fast to moderate clearance | ≈ 5 SUV | ≈ 5 SUV | beginning of clearance was observed | Significant kidney uptake | renal excretion starting in the first few minutes |  | 
Cc1ccc2c(c1)sc(-c1ccc(N(C)C)cc1)[n+]2C [thioflavin T] |  |  |  |  |  |  |  |  |  |  |  |  |  | does not bind to αSYN | known to bind to Aβ fibrils
